The target of experiment [1] is T1, Ba/F3 cells expressing EGFR A767insASV (Homo sapiens, UniProt P00533, DUP767-769, cells depend on it).
T1 construct: A767insASV|N/A|N/A|Addgene #32066
Description: Cell viability (Cell Titer Glo), Ba/F3 cells expressing A767insASV. The experiment is classed as cell-based. To be noted: 72 hours of treatment, read-out: IC50 values, nM Average. The method, then: Cell viability was determined by the Cell Titer Glo assay.
Briefly, stable Ba/F3 cell lines were generated by retroviral transduction of Ba/F3 cell line for 12 hours. […] Three days after transduction, 2 μg/ml puromycin (Invitrogen) was added to the RPMI media. Cell lines were then grown in the absence of IL-3 for two weeks and cell viability was assessed every three days using the Cell Titer Glo assay (Progema).
Briefly, 2000-3000 cells per well were plated in 384-well plates (Greiner Bio-One) in technical triplicate. Cells were treated with seven different concentrations of tyrosine kinase inhibitors or vehicle alone at a final volume of 40 μL per well. After 3 days, 11 μL of Cell Titer Glo was added to each well. Plates were shaken for 15 minutes, and bioluminescence was determined using a FLUOstar OPTIMA multi-mode micro-plate reader (BMG LABTECH). Bioluminescence values were normalized to DMSO treated cells, and normalized values were plotted in GraphPad Prism using non-linear regression fit to normalized data with a variable slope.
In general terms: ATP-based viability assays read luminescence as a measure of living cells.

The test system of a further experiment is EGFR G719X/T790M. Description: In vitro sensitivity of T790M acquired with an exon 18 point mutation. The experiment is classed as cell-based. As to conditions: T790M acquired with an exon 18 point mutation (G719X/T790M). The method, then: Thus, in certain aspects, the subject is determined to not have a mutation at EGFR C797 and/or T790, such as C797S and/or T790M. […] However, in certain aspects, L858R/T790M/C797S, Exon 19 deletion/T790M/C797s, and exon 20 insertions+ C797S or T790M mutants are resistant to EGFR TKIs.

T1 sequence (P00533 with tags, fused parts or gaps DUP767-769): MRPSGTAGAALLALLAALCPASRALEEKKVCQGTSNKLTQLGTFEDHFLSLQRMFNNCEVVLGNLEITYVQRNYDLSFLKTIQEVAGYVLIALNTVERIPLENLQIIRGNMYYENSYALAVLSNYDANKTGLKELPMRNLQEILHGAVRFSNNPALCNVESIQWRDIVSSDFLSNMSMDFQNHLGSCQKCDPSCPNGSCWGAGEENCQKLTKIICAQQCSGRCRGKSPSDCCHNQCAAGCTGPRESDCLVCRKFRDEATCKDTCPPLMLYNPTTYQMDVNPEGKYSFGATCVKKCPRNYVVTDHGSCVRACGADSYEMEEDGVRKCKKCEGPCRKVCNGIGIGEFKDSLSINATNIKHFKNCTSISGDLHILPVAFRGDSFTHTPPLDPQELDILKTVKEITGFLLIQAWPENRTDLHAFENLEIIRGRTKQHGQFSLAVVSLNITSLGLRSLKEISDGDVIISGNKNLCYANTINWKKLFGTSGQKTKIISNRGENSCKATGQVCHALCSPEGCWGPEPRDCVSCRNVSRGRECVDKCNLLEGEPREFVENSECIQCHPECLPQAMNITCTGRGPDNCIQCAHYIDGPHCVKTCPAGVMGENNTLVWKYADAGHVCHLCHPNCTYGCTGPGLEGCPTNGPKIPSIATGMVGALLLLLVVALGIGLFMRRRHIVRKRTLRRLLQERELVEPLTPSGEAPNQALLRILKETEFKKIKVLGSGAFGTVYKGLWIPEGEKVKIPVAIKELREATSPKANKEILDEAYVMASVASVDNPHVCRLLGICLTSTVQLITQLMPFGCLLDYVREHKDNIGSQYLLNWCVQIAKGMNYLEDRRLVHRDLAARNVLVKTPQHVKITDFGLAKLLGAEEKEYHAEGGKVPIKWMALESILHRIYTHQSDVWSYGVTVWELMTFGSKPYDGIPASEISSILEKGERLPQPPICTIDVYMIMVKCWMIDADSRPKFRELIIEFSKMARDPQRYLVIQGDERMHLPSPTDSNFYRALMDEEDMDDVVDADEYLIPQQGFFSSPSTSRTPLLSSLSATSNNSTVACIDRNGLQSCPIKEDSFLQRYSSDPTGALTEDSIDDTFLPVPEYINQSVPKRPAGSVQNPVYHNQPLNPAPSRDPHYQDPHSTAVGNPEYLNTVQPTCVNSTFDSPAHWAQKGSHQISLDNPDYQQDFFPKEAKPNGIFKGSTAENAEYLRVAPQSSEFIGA

Turning to `C=CC(=O)N1CCC(Oc2cc3c(Nc4ccc(Cl)c(Cl)c4F)ncnc3cc2OC)CC1` [Poziotinib, 1-[4-[4-(3,4-dichloro-2-fluoroanilino)-7-methoxyquinazolin-6-yl]oxypiperidin-1-yl]prop-2-en-1-one], the GI50 in experiment [1] came out at 1.62 nM. In addition, the sensitivity in vitro entry in the experiment with EGFR G719X/T790M is recorded as “remain sensitive”.
